Assay [1] deals with T1, human VR1 (Homo sapiens, UniProt Q8NER1).
T1 construct: expressed in transfected cells; host or cells: HEK293
In words: Human VR1 [3H]RTX binding assay. The following applies: inhibition of [3H]RTX binding at 1 μM. On the procedure: Compounds of the present invention were tested for their ability to inhibit the binding of tritiated resiniferatoxin ([^3H] RTX) to human VR1 receptors in a [^3H] RTX binding assay, as previously described (Zhang, Sui-Po. Improved ligand binding assays for vanilloid receptors. PCT Int. Appl. (2002), WO 0233411 A1 20020425 AN 2002:315209; Grant, Elfrida R., Dubin, Adrienne E., Zhang, Sui-Po, Zivin, Robert A., Zhong, Zhong Simultaneous intracellular calcium and sodium flux imaging in human VR1-transfected human embryonic kidney cells: a method to resolve ionic dependence of VR1-mediated cell death. J. Pharmacol. Exp. ther., 2002, 300(1), 9-17.) HEK293 cells were transfected with human VR1 and washed with Hank's balanced Salt Solution, dissociated with cell dissociation buffer (Sigma), and then centrifuged at 1000× g for 5 min. Cell pellets were homogenized in cold 20 mM HEPES buffer (pH 7.4), containing 5.8 mM NaCl, 320 mM sucrose, 2 mM MgCl2, 0.75 CaCl2 and 5 mM KCl and centrifuged at 1000× g for 15 min. The resultant supernate was then centrifuged at 40000× g for 15 min. The pelleted membranes were stored in a freezer at −80 C.
Approximately 120 μg protein/ml from membranes were incubated with indicated concentrations of [^3H]RTX in 0.5 ml of the HEPES buffer (pH 7.4) containing 0.25 mg/mL fatty acid-free bovine serum albumin at 37 C for 60 min. After cooling the reaction mixture to 4 C, 0.1 mg (x-acid glycoprotein was added to each sample, which was incubated at 4 C for 15 min and then centrifuged at 18500× g for 15 min. The tip of the microcentrifuge tube containing the pellet was cut off. Bound radioactivity was quantified by scintillation counting. Non-specific binding was assessed in the presence of 200 nM unlabeled resiniferatoxin.
Data were calculated according to the equation: % inhibtion=(total binding−binding)*100/(total binding−non specific binding).
Ki values were calculated based on an average of duplicate measurements using a GraphPad Prism program.

Assay [2] addresses T1, human VR1. In words: Human VR1 functional assay (FLIPR intracellular Ca2+). The following applies: for IC50: antagonism of capsaicin-induced Ca2+ increase, read-out: h IC50; for inhibition at 5 µM / h % I (1 μM) / inhibition at 1 µM / h % I (5 μM): inhibition of capsaicin response; for inhibition at 5 µM: read-out: h % I (5 μM); for inhibition at 1 µM: read-out: h % I (1 μM). Format: cell-based. On the procedure:
The functional activity of the test compounds was determined by measuring changes in intracellular calcium concentration using a Ca^2+-sensitive fluorescent dye and FLIPR™ technology. Increases in Ca^2+ concentration were readily detected upon challenge with capsaicin. HEK293 Cells expressing human VR1 were grown on poly-D-lysine coated 384 well black-walled plates (BD 354663) and 1 day later loaded with Calcium 3 Dye for 35 min at 37 C, 5% CO2 and then for 25 min at room temperature, and subsequently tested for agonist-induced increases in intracellular Ca^2+ levels using FLIPR™ technology. Cells were challenged with test compounds (at varying concentrations, which are indicated in parentheses in the heading of the table below) and intracellular Ca^2+ was measured for 5 min prior to the addition of capsaicin to all wells to achieve a final concentration of eliciting an approximate 80% maximal response ([…]). EC50 or IC50 values were determined from dose-response studies. Curves were generated using the average of quadruplicate wells for each data point.

SMILES strings stand for the structures.

T1 sequence (Q8NER1 whole entry): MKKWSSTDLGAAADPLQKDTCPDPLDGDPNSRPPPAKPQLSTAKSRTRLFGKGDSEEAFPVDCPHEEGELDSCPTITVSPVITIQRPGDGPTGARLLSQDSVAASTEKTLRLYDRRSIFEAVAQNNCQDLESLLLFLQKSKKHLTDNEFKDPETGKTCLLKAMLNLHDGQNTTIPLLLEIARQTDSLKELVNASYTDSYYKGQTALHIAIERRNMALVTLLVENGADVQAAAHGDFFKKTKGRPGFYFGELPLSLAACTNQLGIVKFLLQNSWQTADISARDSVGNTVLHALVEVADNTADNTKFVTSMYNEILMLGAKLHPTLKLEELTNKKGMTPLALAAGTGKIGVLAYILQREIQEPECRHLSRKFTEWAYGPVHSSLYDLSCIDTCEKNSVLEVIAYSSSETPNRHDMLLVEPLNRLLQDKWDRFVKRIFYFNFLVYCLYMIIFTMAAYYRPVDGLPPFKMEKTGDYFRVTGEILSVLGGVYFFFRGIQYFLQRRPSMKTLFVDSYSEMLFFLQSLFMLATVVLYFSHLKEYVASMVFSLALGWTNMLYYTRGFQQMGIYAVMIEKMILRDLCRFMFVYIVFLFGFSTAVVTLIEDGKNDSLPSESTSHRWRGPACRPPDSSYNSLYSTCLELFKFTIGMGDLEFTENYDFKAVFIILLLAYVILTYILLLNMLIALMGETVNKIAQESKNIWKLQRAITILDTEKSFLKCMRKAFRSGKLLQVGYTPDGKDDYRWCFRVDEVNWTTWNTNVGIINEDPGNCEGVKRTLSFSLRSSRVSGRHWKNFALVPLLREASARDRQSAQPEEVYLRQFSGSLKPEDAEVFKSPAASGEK

Take `CC(C)(C)c1ccc(CCC(=O)Nc2ccc(-c3cnco3)cc2)cc1` [Cpd 193]: on human VR1 [1], the “h Binding % I (1 μM)” value came out at 49%.

For `CC(=O)Nc1cccc(-c2ccc(NC(=O)CCc3ccc(C(C)(C)C)cc3)c(C)c2)c1` [Cpd 54], the “h Binding % I (1 μM)” value at human VR1 [1] worked out at 5%.

Regarding `CC(C)(C)c1ccc(CCC(=O)Nc2ncc(-c3cccc(C(N)=O)c3)cn2)cc1` [Cpd 130], on human VR1 [1], the “h Binding % I (1 μM)” value was 1%.

As to `O=C(CCc1ccc(C(F)(F)F)cc1)Nc1ccc(-c2cccc(O)c2)c2cnccc12` [Cpd 158], on human VR1 [1], the “h Binding % I (1 μM)” value was found to be 77%.

What is called IC50 is the concentration at which inhibition is half-maximal. On to `Cc1cc(NC(=O)CCc2ccc(C(C)(C)C)cc2)cnc1-c1ccncc1` [Cpd 165, 3-(4-tert-butyl-phenyl)-N-(3-methyl-[2,4′]bipyridinyl-5-yl)-propionamide], for which, on human VR1 [2], the IC50 is 73 nM and the inhibition at 5 µM stood at 99%.

Turning to `COc1cccc(-c2ncc(NC(=O)CCc3ccc(C(C)(C)C)cc3)cc2C)c1` [Cpd 259], the inhibition at 5 µM at human VR1 [2] worked out at 90%.

Consider `CC(C)(C)c1ccc(CCC(=O)Nc2ccc(-c3cccnc3)c(F)c2)cc1` [Cpd 181], for which, on human VR1 [2], the IC50 came out at 400 nM.

For `CC(C)(C)c1ccc(CCC(=O)Nc2cc(F)c(-c3ccc(O)cc3)c(F)c2)cc1` [Cpd 90], the “% Response Relative to EC80 of Capsaicin (6 μM)” value (shortened to “% Response Relative to EC80”) at human VR1 [2] (agonist response, 6 μM) came to 17%.

For `O=C(CCc1ccc(C(F)(F)F)cc1)Nc1ccc(-n2ccc3ccccc32)c(C(F)(F)F)c1` [Cpd 269], the “h % I (1 μM)” value at human VR1 [2] is 21%.

Take `Cc1cc(NC(=O)CCc2ccc(C(C)(C)C)cc2)cnc1-c1cccnc1` [Cpd 164, 3-(4-tert-butyl-phenyl)-N-(3-methyl-[2,3′]bipyridinyl-5-yl)-propionamide]: on human VR1 [2], the concentration for half-maximal inhibition (IC50) is 193 nM and the inhibition at 5 µM worked out at 99%.

For the compound `Cc1cc(NC(=O)CCc2ccc(C(C)(C)C)cc2)cnc1-c1cccc(O)c1` [Cpd 161, 3-(4-tert-butyl-phenyl)-N-[6-(3-hydroxy-phenyl)-5-methyl-pyridin-3-yl]-propionamide], at human VR1 [2], the IC50 was 36 nM and the inhibition at 5 µM is 94%.

In the case of `Cc1cn(-c2ccc(NC(=O)CCc3ccc([S+]([O-])C(F)(F)F)cc3)cc2C(F)(F)F)cn1` (centres unmarked) [Cpd 222], on human VR1 [2], the IC50 was found to be 137 nM and the inhibition at 1 µM was determined as 100%.

For the compound `CC(C)(C)c1ccc(CCC(=O)Nc2cnc(-c3ccc(CO)cc3)cn2)cc1` [Cpd 186], at human VR1 [2], the “h % I (1 μM)” value is reported as 6% and the “h % I (5 μM)” value was determined as 39%.

Take `CC(C)c1nccn1-c1ccc(NC(=O)CCc2ccc(C(F)(F)F)cc2)cc1C(F)(F)F` [Cpd 268]: the “h % I (1 μM)” value at human VR1 [2] is reported as 15%.

In the case of `CC(C)(C)c1ccc(CCC(=O)Nc2cnc(-c3ccccc3O)cn2)cc1` [Cpd 183], on human VR1 [2], the “h % I (1 μM)” value is 1% and the “h % I (5 μM)” value is on record as 9%.

With `O=C(/C=C/c1ccc(C(F)(F)F)cn1)Nc1ccc(-n2cnc(Cl)c2Cl)c(C(F)(F)F)c1` [Cpd 235, trans-N-[4-(4,5-Dichloro-imidazol-1-yl)-3-trifluoromethyl-phenyl]-3-(5-trifluoromethyl-pyridin-2-yl)-acrylamide], at human VR1 [2], the IC50 stood at 294 nM and the inhibition at 1 µM came out at 99%.

As to `Cc1cc(NC(=O)CCc2ccc(C(C)(C)C)cc2)cnc1-c1ccc(O)cc1` [Cpd 162, 3-(4-tert-butyl-phenyl)-N-[6-(4-hydroxy-phenyl)-5-methyl-pyridin-3-yl]-propionamide], at human VR1 [2], the IC50 was determined as 126 nM and the inhibition at 5 µM amounted to 99%.

For the compound `O=C(CCc1ccc(C(F)(F)F)cc1)Nc1ccc(-n2cnc3c2CCCC3)c(C(F)(F)F)c1` [Cpd 270, N-[4-(4,5,6,7-Tetrahydro-benzoimidazol-1-yl)-3-trifluoromethyl-phenyl]-3-(4-trifluoromethyl-phenyl)-propionamide], the inhibition at 1 µM on human VR1 [2] was 47%.

With `Cc1cc(NC(=O)CCc2ccc([S+]([O-])C(F)(F)F)cc2)cnc1-n1cnc(Cl)c1Cl` (centres unmarked) [Cpd 273], on human VR1 [2], the “h % I (1 μM)” value was determined as 36%.

On to `Cc1cc(NC(=O)CCc2ccc(F)c(F)c2)cnc1-n1cnc(Cl)c1Cl` [Cpd 257], for which the inhibition at 1 µM on human VR1 [2] worked out at 41%.

By EC50 is commonly meant the concentration that produces a half-maximal response. Consider `CC(C)(C)c1ccc(CCC(=O)Nc2ccc(-c3cccc(CO)c3)c(CO)c2)cc1` [Cpd 95], for which the Emax at 6 µM at human VR1 [2] (agonist response, 6 μM, read-out: % Response Relative to EC80 of Capsaicin (6 μM)) is 127%. Besides, the EC50 at human VR1 [2] (agonist-induced Ca2+ increase, read-out: h EC50) is 248 nM. The inhibition at 1 µM at human VR1 [2] was 40%.

`Cc1cc(NC(=O)/C=C/c2ccc(SC(F)(F)F)cc2)cnc1-n1cnc(Cl)c1Cl` [Cpd 275]: the “h % I (1 μM)” value on human VR1 [2] turned out to be 16%.

As for `CC(C)(C)c1ccc(CCC(=O)Nc2cc(F)c(-c3cccnc3)c(F)c2)cc1` [Cpd 168], on human VR1 [2], the IC50 was found to be 1560 nM and the inhibition at 5 µM came to 95%.

As for `Cc1cc(NC(=O)/C=C/c2ccc(C(F)(F)F)cn2)cnc1-n1cnc(Cl)c1Cl` [Cpd 276], at human VR1 [2], the “h % I (1 μM)” value is reported as 19%.

As to `O=C(CCc1ccc(C(F)(F)F)cc1)Nc1cnc(-c2cccnc2)c(C(F)(F)F)c1` [Cpd 249], on human VR1 [2], the IC50 was found to be 613 nM and the inhibition at 5 µM stood at 100%.

Turning to `Cc1nc(-c2ccc(NC(=O)CCc3ccc(C(F)(F)F)cc3)cc2C(F)(F)F)no1` [Cpd 266, N-[4-(5-Methyl-[1,2,4]oxadiazol-3-yl)-3-trifluoromethyl-phenyl]-3-(4-trifluoromethyl-phenyl)-propionamide], on human VR1 [2], the inhibition at 1 µM came out at 47% and the inhibition at 5 µM was 64%.

On to `CC(C)(C)c1ccc(CCC(=O)Nc2cnc(-c3cccnc3)cn2)cc1` [Cpd 187], for which, at human VR1 [2], the “h % I (1 μM)” value was found to be 11% and the “h % I (5 μM)” value is 15%.

With `Cc1cc(NC(=O)CCc2ccc(F)cc2)cnc1-n1cnc(Cl)c1Cl` [Cpd 280], the “h % I (1 μM)” value at human VR1 [2] turned out to be 16%.

Turning to `CC(C)(C)c1ccc(CCC(=O)Nc2cnc(-c3cccc(O)c3)cn2)cc1` [Cpd 184], on human VR1 [2], the “h % I (1 μM)” value is reported as 1% and the “h % I (5 μM)” value is reported as 14%.

On to `CC(C)(C)c1ccc(CCC(=O)Nc2cc(F)c(-c3cccc(O)c3)c(F)c2)cc1` [Cpd 89], for which the “h % I (5 μM)” value at human VR1 [2] was determined as 65%.

In the case of `CC(C)(C)c1ccc(CCC(=O)Nc2ccc(-c3cccnc3)c(CO)c2)cc1` [Cpd 170], at human VR1 [2] (agonist response, 6 μM), the “% Response Relative to EC80” value is listed as 101%. For the same compound, the “h % I (1 μM)” value at human VR1 [2] is reported as 37%.

Take `Cc1nccn1-c1ccc(NC(=O)CCc2ccc(C(F)(F)F)cc2)cc1C(F)(F)F` [Cpd 267]: on human VR1 [2], the “h % I (1 μM)” value is listed as 20%.

As to `Cc1cc(NC(=O)CCc2ccc(C(C)(C)C)cc2)cnc1-c1ccccn1` [Cpd 177], the IC50 at human VR1 [2] was found to be 295 nM.

Regarding `O=C(CCc1ccc(C(F)(F)F)cn1)Nc1ccc(-n2cnc(Cl)c2Cl)c(C(F)(F)F)c1` [Cpd 248], on human VR1 [2], the IC50 was 602 nM and the inhibition at 1 µM came out at 83%.

On to `O=C(CCc1ccc(SC(F)(F)F)cc1)Nc1ccc(-n2cnc(Cl)c2Cl)c(C(F)(F)F)c1` [Cpd 239], for which, at human VR1 [2], the IC50 was found to be 358 nM and the inhibition at 1 µM amounted to 88%.

On to `Cc1cc(NC(=O)CCc2ccc(C(C)(C)C)cc2)cc(C)c1-c1cccc(O)c1` [Cpd 86, 3-(4-tert-butyl-phenyl)-N-(3′-hydroxy-2,6-dimethyl-biphenyl-4-yl)-propionamide], for which, at human VR1 [2], the IC50 stood at 109 nM and the inhibition at 5 µM was determined as 97%.

With `O=C(CCc1ccc(C(F)(F)F)cc1)Nc1ccc(-n2cnc(C(F)(F)F)c2)c(C(F)(F)F)c1` [Cpd 238, 3-(4-Trifluoromethyl-phenyl)-N-[3-trifluoromethyl-4-(4-trifluoromethyl-imidazol-1-yl)-phenyl]-propionamide], at human VR1 [2], the IC50 turned out to be 340 nM and the inhibition at 1 µM came out at 100%.

Consider `Cc1cc(NC(=O)CCc2ccc(C(C)(C)C)cc2)cc(C)c1-c1cccnc1` [Cpd 166], for which, at human VR1 [2], the concentration for half-maximal inhibition (IC50) is 2860 nM and the inhibition at 5 µM is 76%.

`Cc1cc(NC(=O)CCc2ccc(C(C)(C)C)cc2)cc(C)c1-c1ccccn1` [Cpd 174]: the IC50 at human VR1 [2] turned out to be 2890 nM.

Consider `O=C(CCc1ccc(F)cc1)Nc1ccc(-n2ccnc2)c(C(F)(F)F)c1` [Cpd 279], for which, at human VR1 [2], the “h % I (1 μM)” value stood at 30%.

Turning to `CC(C)(C)c1ccc(CCC(=O)Nc2cc(F)c(-c3ccc(CO)cc3)c(F)c2)cc1` [Cpd 91], the “% Response Relative to EC80” value on human VR1 [2] (agonist response, 6 μM) amounted to 22%.
